According to US6830760B2, “Glyburide composition” (Bristol-Myers Squibb Company, priority 2000, dated 2004):

Assay: Glyburide particle size by laser light scattering / laser diffraction
Type: physicochemical
Conditions: drug substance, laser diffraction particle size analysis
Method: Data from studies with metformin hydrochloride/glyburide tablets formulated with glyburide of different particle size characteristics allowed for the development of a correlation between glyburide particle size and the in vivo performance. The desired particle size distribution may be obtained by sieving or, preferably, air jet milling, and was measured by a laser light scattering method. The particle size measurement method of laser light scattering uses drug substance dispersed in liquid paraffin for introduction into the measurement cell. The apparatus produces a volume based, cumulative size distribution. […] The mill was operated with a Venturi nitrogen pressure of approximately 1.5 atmospheres and a micronization chamber pressure of 4 atmospheres. Size reduction was not allowed to proceed to the extent normally employed to make glyburide that would be described as micronized. The mill was turned off and the drug substance was discharged from it. A sample of the size-reduced glyburide was evaluated by a laser diffraction particle size analysis method.

SMILES	D25% [microns]	D50% [microns]	D75% [microns]
COc1ccc(Cl)cc1C(=O)NCCc1ccc(S(=O)(=O)NC(=O)NC2CCCCC2)cc1 [Example 1, 5-chloro-N-[2-[4-[[[(cyclohexylamino)-carbonyl]amino]sulfonyl]phenyl]ethyl]-2-methoxybenzamide]	5	9	21
COc1ccc(Cl)cc1C(=O)NCCc1ccc(S(=O)(=O)NC(=O)NC2CCCCC2)cc1 [commercially available micronized sample]	2.8	4.5	7.3
